Patent publication US7501430B2 (ArQule, Inc., priority 2006, dated 2009)
Where two headings read alike, the source gives them in different places.

Target: T1, mutant B-RAF (Homo sapiens, UniProt P15056, V600E)
T1 construct: purchased Upstate (Charlottesville, Va.)
Experiment: RAF biochemical assay (MEK-1 phosphorylation, anti-phospho MEK1/2 detection)
Details: for inhibition at 10 µM: read-out: Mutant B-RAF % inhibition
Outline: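 Detection is by ELISA: after a 30 min room-temperature reaction, plate-captured GST-MEK-1 is probed with anti-phospho MEK1/2, then an AP-tagged secondary antibody with fluorescent Attophos read-out.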

T1 sequence (P15056 whole entry V600E): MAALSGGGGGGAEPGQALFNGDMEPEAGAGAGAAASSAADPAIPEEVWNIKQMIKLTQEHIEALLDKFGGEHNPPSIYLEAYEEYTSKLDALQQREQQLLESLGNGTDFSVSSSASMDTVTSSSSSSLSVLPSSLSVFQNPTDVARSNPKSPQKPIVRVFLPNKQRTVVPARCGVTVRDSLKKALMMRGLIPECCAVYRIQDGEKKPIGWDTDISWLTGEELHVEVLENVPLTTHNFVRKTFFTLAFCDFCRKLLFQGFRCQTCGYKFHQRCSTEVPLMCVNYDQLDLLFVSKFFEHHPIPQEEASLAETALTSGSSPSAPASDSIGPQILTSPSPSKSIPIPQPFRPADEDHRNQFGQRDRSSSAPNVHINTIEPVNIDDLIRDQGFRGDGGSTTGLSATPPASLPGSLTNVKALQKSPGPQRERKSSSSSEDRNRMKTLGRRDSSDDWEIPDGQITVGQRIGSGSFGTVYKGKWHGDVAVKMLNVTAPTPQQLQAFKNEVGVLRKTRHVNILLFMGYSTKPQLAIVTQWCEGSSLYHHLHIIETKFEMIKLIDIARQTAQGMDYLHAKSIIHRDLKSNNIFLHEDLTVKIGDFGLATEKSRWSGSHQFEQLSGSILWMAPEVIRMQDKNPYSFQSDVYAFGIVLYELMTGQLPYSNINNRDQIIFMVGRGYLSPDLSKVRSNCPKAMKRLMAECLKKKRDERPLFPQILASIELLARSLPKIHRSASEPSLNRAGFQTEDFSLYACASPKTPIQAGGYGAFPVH

| Structure (SMILES) | IC50 (read-out: Mutant B-RAF IC50) [µM] | further results |
| --- | --- | --- |
| O=S(=O)(c1ccc(Cl)cc1)N1CCC[C@@H](Nc2nccc(-c3c(-c4ccc(F)c(O)c4)nc4sccn34)n2)C1 [Example 353, 5-{5-[2-({(3R)-1-[(4-chlorophenyl)suifonyl]piperidin-3-yl}amino)pyrimidin-4-yl]imidazo[2,1-b][1,3]thiazol-6-yl}-2-fluorophenol] | 0.003 |  |
| O=S(=O)(c1ccc(F)cc1)N1CCCC(Nc2nccc(-c3c(-c4ccc(F)cc4)nc4sccn34)n2)C1 (stereo not shown) [Example 2, 4-[6-(4-fluorophenyl)imidazo[2,1-b][1,3]thiazol-5-yl]-N-{1-[(4-fluorophenyl)sulfonyl]piperidin-3-yl}pyrimidin-2-amine] | 0.458 |  |
| O=S(=O)(c1c(F)cccc1F)N1CCC[C@@H](Nc2nccc(-c3c(-c4ccc(F)cc4)nc4occn34)n2)C1 [Example 54, N-{(3R)-1-[(2,6-difluoro-phenyl)sulfonyl]piperidin-3-yl}-4-[6-(4-fluorophenyl)imidazo[2,1-b][1,3]oxazol-5-yl]pyrimidin-2-amine] |  | inhibition at 10 µM (@ 10 uM): 47% |
| O=S(=O)(C1CC1)N1CCC[C@@H](Nc2nccc(-c3c(-c4cccc(O)c4)nc4occn34)n2)C1 [Example 397, 3-[5-(2-{[(3R)-1-(cyclopropylsulfonyl)piperidin-3-yl]amino}pyrimidin-4-yl)imidazo[2,1-b][1,3]oxazol-6-yl]phenol] |  | IC50 (read-out: Mutant B-RAF IC50 (uM) or % inhibition): 2.3 µM |
| CCNC(=O)N1CCC(Nc2nccc(-c3c(-c4ccc(F)cc4)nc4sccn34)n2)CC1 [Example 294, N-ethyl-4-({4-[6-(4-fluorophenyl)imidazo[2,1-b][1,3]thiazol-5-yl]pyrimidin-2-yl}amino)piperidine-1-carboxamide] | 0.041 |  |
| NCC(=O)N1CCC(Nc2nccc(-c3c(-c4ccc(F)cc4)nc4occn34)n2)CC1 [Example 190, N-[1-(aminoacetyl)piperidin-4-yl]-4-[6-(4-fluorophenyl)imidazo[2,1-b][1,3]oxazol-5-yl]pyrimidin-2-amine] | 1.15 |  |
| COc1cccc(-c2nc3sccn3c2-c2ccnc(N[C@@H]3CCCN(S(=O)(=O)c4ccc(CCC(=O)O)cc4)C3)n2)c1 [Example 118, 3-(4-{[(3R)-3-({4-[6-(3-methoxyphenyl)imidazo[2,1-b][1,3]thiazol-5-yl]pyrimidin-2-yl}amino)piperidin-1-yl]sulfonyl}phenyl)propanoic acid] | 0.229 |  |
| c1ccc2cc(-c3nc4sccn4c3-c3ccnc(N[C@@H]4CCCNC4)n3)ccc2c1 [Example 97, 4-[6-(2-naphthyl)imidazo[2,1-b][1,3]thiazol-5-yl]-N-[(3R)-piperidin-3-yl]pyrimidin-2-amine] | 0.314 |  |
| Cc1cn2c(-c3ccnc(NC4CCN(S(=O)(=O)c5ccc(Cl)cc5)CC4)n3)c(-c3ccc(F)cc3)nc2s1 [Example 257, N-{1-[(4-chlorophenyl)sulfonyl]piperidin-4-yl}-4-[6-(4-fluorophenyl)-2-methylimidazo[2,1-b][1,3]thiazol-5-yl]pyrimidin-2-amine] | 0.073 |  |
| Cc1ccccc1S(=O)(=O)N1CCC[C@@H](Nc2nccc(-c3c(-c4ccc(F)cc4)nc4occn34)n2)C1 [Example 53, 4-(6-(4-fluorophenyl)imi-dazo[2,1-b][1,3]oxazol-5-yl]-N-{(3R)-1-[(2-methylphenyl)sulfonyl]piperidin-3-yl}pyrimidin-2-amine] |  | inhibition at 10 µM: 42% |
| COc1ccc(C(=O)N2CCC[C@@H](Nc3nccc(-c4c(-c5ccc(F)c(F)c5)nc5sccn45)n3)C2)cc1 [Example 89, 4-[6-(3,4-difluorophenyl)imidazo[2,1-b][1,3]thiazol-5-yl]-N-[(3R)-1-(4-methoxybenzoyl)piper-idin-3-yl]pyrimidin-2-amine] |  | inhibition at 10 µM (@ 10 uM): 40% |
| CCC(=O)N1CCC[C@@H](Nc2nccc(-c3c(-c4ccc(F)cc4)nc4occn34)n2)C1 [Example 34, 4-[6-(4-fluorophenyl)imi-dazo[2,1-b][1,3]oxazol-5-yl]-N-[(3R)-1-propionylpiperidin-3-yl]pyrimidin-2-amine] |  | IC50: 1.58 µM |
| CCCOC(=O)N1CCC(Nc2nccc(-c3c(-c4cccc(O)c4)nc4sccn34)n2)CC1 [Example 387, propyl 4-({4-[6-(3-hydroxyphenyl)imidazo[2,1-b][1,3]thiazol-5-yl]pyrimidin-2-yl}amino)piperidine-1-carboxylate] | > 3 |  |
| COc1cccc(-c2nc3sccn3c2-c2ccnc(NC3CCN(S(=O)(=O)c4ccc(Cl)cc4)CC3)n2)c1 [Example 263, N-{1-[(4-chlorophenyl)sulfonyl]piperidin-4-yl}-4-[6-(3-methoxyphenyl)imidazo[2,1-b][1,3]thiazol-5-yl]pyrimidin-2-amine] | > 5 |  |
| N#Cc1cccc(-c2nc3sccn3c2-c2ccnc(N[C@@H]3CCCNC3)n2)c1 [Example 125, 3-(5-{2-[(3R)-piperidin-3-ylamino]pyrimidin-4-yl}imidazo[2,1-b][1,3]thiazol-6-yl)benzonitrile] |  | inhibition at 10 µM (@ 10 uM): 19% |
| Cc1cn2c(-c3ccnc(NC4CCN(C(=O)NCc5ccco5)CC4)n3)c(-c3ccc(F)cc3)nc2s1 [Example 242, 4-({4-[6-(4-fluorophenyl)-2-methylimidazo[2,1-b][1,3]thiazol-5-yl]pyrimidin-2-yl}amino)-N-(2-furylmethyl)piperidine-1-carboxamide] |  | inhibition at 10 µM (@ 10 uM): 67% |
| O=S(=O)(c1ccc(Cl)cc1)N1CCC[C@@H](Nc2nccc(-c3c(-c4ccc(F)cc4)nc4sccn34)n2)C1 [Example 98, N-{(3R)-1-[(4-chlorophenyl)sulfonyl]piperidin-3-yl}-4-[6(4-fluorophenyl)imidazo[2,1-b][1,3]thiazol-5-yl]pyrimidin-2-amine] | 0.036 |  |
| FC(F)(F)c1cccc(-c2nc3occn3c2-c2ccnc(NC3CCNCC3)n2)c1 [Example 306, N-piperidin-4-yl-4-{6-[3-(trifluoromethyl)phenyl]imidazo[2,b][1,3]oxazol-5-yl}pyrimidin-2-amine] |  | inhibition at 10 µM (@ 10 uM): 32% |
| COc1ccccc1-c1nc2sccn2c1-c1ccnc(N[C@@H]2CCCNC2)n1 [Example 102, 4-[6-(2-methoxyphenyl)imidazo[2,1-b][1,3]thiazol-5-yl]-N-[(3R)-piperidin-3-yl]pyrimidin-2-amine] | 1.28 |  |
| COc1cccc(-c2nc3sccn3c2-c2ccnc(N[C@@H]3CCCN(S(=O)(=O)c4ccc(F)cc4)C3)n2)c1 [Example 82, N-{(3R)-1-[(4-fluorophenyl)sulfonyl]piper-idin-3-yl}-4-(6-(3-methoxyphenyl)imidazo[2,1-b][1,3]thiazot-5-yl]pyrimidin-2-amine] | 0.192 |  |
| CS(=O)(=O)N1CCC(Nc2nccc(-c3c(-c4ccc(F)cc4)nc4occn34)n2)CC1 [Example 299, 4-[6-(4-fluorophenyl)imidazo[2,1-b][1,3]oxazol-5-yl]-N-[1-(methylsulfonyl)piperidin-4-yl]pyrimidin-2-amine] |  | inhibition at 10 µM (@ 10 uM): 55% |
| CC(C)NC(=O)N1CCC(Nc2nccc(-c3c(-c4cccc(O)c4)nc4sccn34)n2)CC1 [Example 351, 4-({4-[6-(3-hydroxyphenyl)imidazo[2,1-b][1,3]thiazol-5-yl]pyrimidin-2-yl}amino)-N-isopropylpiperidine-1-carboxamide] | 0.94 |  |

More lines, main results first:

| IC50 (read-out: Mutant B-RAF IC50) [µM] | Structure (SMILES) | further results |
| --- | --- | --- |
| 1.44 | O=C(Nc1ccc(O)cc1)N1CCC[C@@H](Nc2nccc(-c3c(-c4cccc(O)c4)nc4sccn34)n2)C1 [Example 343, (3R)-N-(4-hydroxyphenyl)-3-({4-[6-(3-hydroxyphenyl)imidazo[2,1-b][1,3]thiazol-5-yl]pyrimidin-2-yl}amino)piperidine-1-carboxamide] |  |
| 0.044 | Fc1ccc(-c2nc3sccn3c2-c2ccnc(N[C@@H]3CCNC3)n2)cc1 [Example 277, 4-[6-(4-fluorophenyl)imidazo[2,1-b][1,3]thiazol-5-yl]-N-[(3R)-pyrrolidin-3-yl]pyrimidin-2-amine] |  |
| 0.981 | O=S(=O)(c1cc(Cl)cc(Cl)c1)N1CCC(Nc2nccc(-c3c(-c4ccc(F)cc4)nc4occn34)n2)CC1 [Example 205, N-{1-[(3,5-dichlorophenyl)sulfonyl]piperidin-4-yl}-4-[6-(4-fluorophenyl)imidazo[2,1-b][1,3]oxazol-5-yl]pyrimidin-2-amine] |  |
| 0.698 | O=S(=O)(c1ccc(Cl)cc1)N1CCC[C@@H](Nc2nccc(-c3c(-c4ccc(/C=N/O)cc4)nc4sccn34)n2)C1 [Example 392, 4-{5-[2-({(3R)-1-[(4-chlorophenyl)sulfonyl]piperidin-3-yl}amino)pyrimidin-4-yl]imidazo[2,1-b][1,3]thiazol-6-yl}benzaldehyde oxime] |  |
| 2.46 | COc1cccc(-c2nc3sccn3c2-c2ccnc(NC3CCN(C(=O)Cc4ccc(N(C)C)cc4)CC3)n2)c1 [Example 245, N-(1-{[4-(dimethylamino)phenyl]acetyl}piperidin-4-yl)-4-[6-(3-methoxyphenyl)imidazo[2,1-b][1,3]thiazol-5-yl]pyrimidin-2-amine] |  |
| 0.71 | N#Cc1cccc(-c2nc3sccn3c2-c2ccnc(N[C@@H]3CCCN(S(=O)(=O)c4ccc(Cl)cc4)C3)n2)c1 [Example 126, 3-{5-[2-({(3R)-1-[(4-chlorophenyl)sulfonyl]piperidin-3-yl}amino)pyrimidin-4-yl]imidazo[2,1-b][1,3]thiazol-6-yl}benzonitrile] |  |
| 1.05 | O=C(NS(=O)(=O)c1ccc(Cl)cc1)N1CCC(Nc2nccc(-c3c(-c4cccc(O)c4)nc4sccn34)n2)CC1 [Example 336, N-[(4-chlorophenyl)sulfonyl]-4-({4-[6-(3-hydroxyphenyl)imidazo[2,1-b][1,3]thiazol-5-yl]pyrimidin-2-yl}amino)piperidine-1-carboxamide] |  |
| 0.931 | Cc1nc(S(=O)(=O)N2CCC(Nc3nccc(-c4c(-c5ccc(F)cc5)nc5occn45)n3)CC2)cn1C [Example 248, N-{1-[(1,2-dimethyl-1H-imidazol-4-yl)sulfonyl]piperidin-4-yl}-4-[6-(4-fluorophenyl)imidazo[2,1-b][1,3]oxazol-5-yl]pyrimidin-2-amine] |  |
| > 3 | O=S(=O)(Cc1ccccc1)N1CCC[C@@H](Nc2nccc(-c3c(-c4cccc(O)c4)nc4sccn34)n2)C1 [Example 369, 3-[5-(2-{[(3R)-1-(benzylsulfonyl)piperidin-3-yl]amino}pyrimidin-4-yl)imidazo[2,1-b][1,3]thiazol-6-yl]phenol] |  |
